For the experiment, the system named is Influenza A virus. The experiment can be described thus: Antiviral activity against Influenza A/WSN/33 harboring H275Y mutant at 0.3 uM. The format is functional, organism-based.

The source made the active and inactive calls. No cut-off for these calls is given here.

As to `CC(C)(C)N(CC(=O)O)Nc1nc(-c2c[nH]c3ncc(F)cc23)ncc1F`, the result was Active.

Values taken from ChEMBL document CHEMBL5385878, “Synthesis and structure-activity optimization of 7-azaindoles containing aza-β-amino acids targeting the influenza PB2 subunit” (Eur J Med Chem, 2023).
